Test results from patent US20240132445A1, “PHENOL DERIVATIVE AND APPLICATION THEREOF IN MEDICAMENTS” (priority 2021, published 2024).

What was measured:
[1] = in vivo; conditions: both, ICR, mouse, in vivo, iv
Experimental: (§1) SPF-grade ICR mice, each weighing 18-22 g, half male and half female, were used. A well-established mouse anesthesia model was used to study the general anesthesia effect of the compound of the present invention. The compounds were formulated with solvents of 10% DMSO, 15% solutol (HS15) and 75% saline to the desired concentration, for further use. After adapting to the experimental environment, the experimental animals were fasted with water available for 12 h, and were administered via intravenous injection at an administration volume of 10 mL/kg. Then the anesthesia induction time (the time period from drug administration to disappearance of the righting reflex) and the anesthesia maintenance time (the time period from disappearance of the righting reflex to recovery of the righting reflex) were recorded. Indicators including the median effective dose (ED50), median lethal dose (LD50), therapeutic index (TI, i.e. LD50/ED50), anesthesia induction time, anesthesia maintenance time and maximum tolerated dose were used to evaluate the effect and safety of anesthesia.

[2] = test system: ICR mice; experiment: animal or person; conditions: for ED50: Mus musculus
Experimental: as §1

[3] = in vivo; format: in vivo, rats; conditions: both sexes, Sprague-Dawley, rat, in vivo, iv
Experimental: (§2) SD rats, half male and half female, were fasted with water available for 12 h, and were administered via intravenous injection at an administration volume of 10 mL/kg. Then the anesthesia induction time (the time period from drug administration to disappearance of the righting reflex), the anesthesia maintenance time (the time period from disappearance of the righting reflex to recovery of the righting reflex and revival) and the anesthesia recovery time (the time period from revival to complete recovery) were recorded. Indicators including the median effective dose (ED50), median lethal dose (LD50), therapeutic index (TI, i.e. LD50/ED50), anesthesia induction time, anesthesia maintenance time and maximum tolerated dose were used to evaluate the effect and safety of anesthesia.

[4] = test system: SD rats; experiment: animal or person; format: in vivo
Experimental: as §2

[5] = Pharmacokinetic study in Beagle dogs; format: in vivo; conditions: male, dog, plasma, iv, 0.5 mg/kg
Experimental: Six male Beagle dogs (6-10 kg) were randomized into 2 groups (n=3): control group 3 and compound 20. The […] were administered via intravenous injection at 0.5 mg/kg (control group 3) and 0.5 mg/kg (compound 20), respectively, with an administration volume of 1 mL/kg and a vehicle of 5% DMSO+10% solutol (HS15)+85% Saline. Blood samples were taken before administration and at 2 min, 5 min, 10 min, 20 min, 30 min, 1 h, 1.5 h, 2 h and 3 h after administration. Plasma samples were taken by centrifugation, and stored in a −80° C. refrigerator until LC-MS analysis to be tested. After sample processing, quantitative analysis of substances in plasma was conducted using LCMS/MS to detect the concentration of prototype compounds in the plasma. The plasma concentration/time curve obtained in this way was used to calculate pharmacokinetic parameters by a validated pharmacokinetic computer program.

[6] = Pharmacokinetic study in rats; format: in vivo, SD rats; conditions: male, Sprague-Dawley, rat, plasma, iv, 1 mg/kg
Experimental: Twelve male SD rats (200-300 g) were randomized into 2 groups (n=6): control group 3 and compound 20. The rats were administered via intravenous injection at 1 mg/kg (control group 3) and 1 mg/kg (compound 20), respectively, with an administration volume of 5 mL/kg and a vehicle of 5% DMSO+10% solutol (HS15)+85% Saline. Blood samples were taken before administration and at 2 min, 4 min, 8 min, 12 min, 15 min, 30 min, 1 h, 1.5 h and 2 h after administration. Plasma samples were taken by centrifugation, and stored in a −80° C. refrigerator until LC-MS analysis to be tested. After sample processing, quantitative analysis of substances in plasma was conducted using LCMS/MS to detect the concentration of prototype compounds in the plasma. The plasma concentration/time curve obtained in this way was used to calculate pharmacokinetic parameters by a validated pharmacokinetic computer program.

[7] = test system: Beagle dogs; experiment: Hemodynamic effect study in conscious Beagle dogs (telemetry); format: in vivo; conditions: iv, control group 3 2 mg/kg, compound 20 0.5 and 1 mg/kg, within 1 h, recovery after 1 h
Experimental: The experiment used an emka PACK 4G telemetry system to detect the effects of intravenous injection of control group 3 and compound 20 on electrocardiogram, blood pressure and body temperature in conscious Beagle dogs, providing reference information for evaluating the safety of clinical use.
Four Beagle dogs were subjected to crossover administration, with a vehicle control (5% DMSO+10% solutol+85% Saline), control group 3 (2 mg/kg), compound 20 (0.5 mg/kg) and compound 20 (1 mg/kg) for each intravenous injection, with an administration volume of 2 mL/kg. Observations were respectively conducted before administration and within 1 h after administration on the day of administration. Anal temperature was measured before administration and at 30 min, 1 h, 2 h and 3 h after administration during each administration period; and electrocardiogram parameters were continuously collected from 0.5 h before administration to 3 h after administration during each administration period. Blood pressure was collected at 15 min after collection was started, and was collected at 2 min, 5 min, 10 min, 20 min, 30 min, 1 h, 2 h and 3 h after administration. The electrocardiogram, blood pressure data, body temperature, and clinical observation results on the day of administration at various time points including before administration (at 30 min after collection was started) and at 2 min, 5 min, 10 min, 20 min, 30 min, 1 h, 2 h and 3 h after administration were analysed and evaluated.

[8] = mice, iv, administration to disappearance of righting reflex
[9] = mice, iv, disappearance to recovery of righting reflex

For CCS(=O)(=O)[C@@H](C)c1cccc([C@@H](C)C2CC2)c1O [Compound 22, 2-((S)-1-cyclopropylethyl)-6-((S)-1-(ethylsulfonyl)ethyl)phenol], the LD50 [1] was 18 mg/kg, the MTD [1] was 9 mg/kg and the ED50 ([2]; iv) was 5 mg/kg. It also gave a TI ([2]; mice, LD50/ED50) of 3.6, an Anesthesia induction time [2, 8] of 2 s and an Anesthesia maintenance time [2, 9] of 384 s.
CC(C)c1cccc(C(C)S(C)(=O)=O)c1O (stereo not shown) [Compound 1, 2-isopropyl-6-(1-(methylsulfonyl)ethyl)phenol] showed an LD50 [1] of 35 mg/kg, an MTD [1] of 24 mg/kg and an ED50 ([2]; iv) of 8 mg/kg. For the same compound, the TI ([2]; mice, LD50/ED50) was 4.4, the Anesthesia induction time [2, 8] was 60 s and the Anesthesia maintenance time [2, 9] was 255 s.
In the case of CC(C)c1cccc(C(C)C2CC2)c1O (stereo not shown) [Control group 2, ciprofol, reference compound], the LD50 [1] is reported as 17 mg/kg, the MTD [1] is reported as 9 mg/kg and the ED50 ([2]; iv) is reported as 3.5 mg/kg. For the same compound, the Anesthesia induction time ([2]; mouse, in vivo) was 2 s, the Anesthesia maintenance time ([2]; mouse, in vivo) was 534 s and the TI ([2]; mouse, in vivo) was 4.9.
With CC(C)c1cccc([C@H](C)C2CC2)c1O [Control group 3, ciprofol, reference compound] the LD50 [3] was 5.6 mg/kg, the MTD [3] was 4 mg/kg and the ED50 ([4]; Rattus norvegicus, iv) was 1.1 mg/kg. For the same compound, the Anesthesia induction time ([4]; rat, in vivo) was 34 s, the Anesthesia maintenance time ([4]; rat, in vivo) was 409 s and the TI ([4]; rat, in vivo) was 5.1. For the same compound, the LD50 [1] was 6 mg/kg, the MTD [1] was 3.1 mg/kg and the ED50 ([2]; iv) was 1.2 mg/kg. For the same compound, the Anesthesia induction time ([2]; mouse, in vivo) was 2 s, the Anesthesia maintenance time ([2]; mouse, in vivo) was 521 s and the TI ([2]; mouse, in vivo) was 5. The AUC(0-t) [5] was 145 ng·h/mL, the half-life [5] was 37.8 min and the AUC(0-t) [6] was 142 ng·h/mL. For the same compound, the half-life [6] was 50.6 min and the “change in heart rate after administration” value [7] was “slow down in heart rate”.
For CCC(c1cccc(C(C)C2CC2)c1O)S(C)(=O)=O (stereo not shown) [Compound 14, 2-(1-cyclopropylethyl)-6-(1-(methylsulfonyl)propyl)phenol], the LD50 [1] was 12 mg/kg, the MTD [1] was 9 mg/kg and the ED50 ([2]; iv) was 4 mg/kg. For the same compound, the TI ([2]; mice, LD50/ED50) was 3.0, the Anesthesia induction time [2, 8] was 2 s and the Anesthesia maintenance time [2, 9] was 499 s.
Work on CC(c1cccc(C(C)S(=O)(=O)C(C)C)c1O)C1CC1 (stereo not shown) [Compound 6, 2-(1-cyclopropylethyl)-6-(1-(isopropylsulfonyl)ethyl)phenol] yielded an LD50 [1] of 34 mg/kg, an MTD [1] of 22 mg/kg and an ED50 ([2]; iv) of 11 mg/kg. It also gave a TI ([2]; mice, LD50/ED50) of 3.1, an Anesthesia induction time [2, 8] of 5 s and an Anesthesia maintenance time [2, 9] of 579 s.
For CCS(=O)(=O)C(C)c1cccc(C(C)C2CC2)c1O (stereo not shown) [Compound 11, 2-(1-cyclopropylethyl)-6-(1-(ethylsulfonyl)ethyl)phenol], the LD50 [1] was 11 mg/kg, the MTD [1] was 6 mg/kg and the ED50 ([2]; iv) was 2 mg/kg. The TI ([2]; mice, LD50/ED50) was 5.5, the Anesthesia induction time [2, 8] was 22 s and the Anesthesia maintenance time [2, 9] was 560 s.
CCS(=O)(=O)[C@H](C)c1cccc([C@H](C)C2CC2)c1O [Compound 23, 2-((R)-1-cyclopropylethyl)-6-((R)-1-(ethylsulfonyl)ethyl)phenol] gave an LD50 [1] of 14 mg/kg, an MTD [1] of 10 mg/kg and an ED50 ([2]; iv) of 7 mg/kg. The TI ([2]; mice, LD50/ED50) was 2, the Anesthesia induction time [2, 8] was 2 s and the Anesthesia maintenance time [2, 9] was 294 s.
CCS(=O)(=O)[C@H](C)c1cccc([C@@H](C)C2CC2)c1O [Compound 21, 2-((S)-1-cyclopropylethyl)-6-((R)-1-(ethylsulfonyl)ethyl)phenol] gave an LD50 [1] of 6 mg/kg, an MTD [1] of 3.5 mg/kg and an ED50 ([2]; iv) of 2.5 mg/kg. It also gave a TI ([2]; mice, LD50/ED50) of 2.4, an Anesthesia induction time [2, 8] of 2 s and an Anesthesia maintenance time [2, 9] of 354 s.
For CC(C)c1cccc(C(C)[S+](C)[O-])c1O (stereo not shown) [Compound 2, 2-isopropyl-6-(1-(methylsulfinyl)ethyl)phenol], the LD50 [1] was 17 mg/kg, the MTD [1] was 10 mg/kg and the ED50 ([2]; iv) was 6 mg/kg. The TI ([2]; mice, LD50/ED50) was 3.8, the Anesthesia induction time [2, 8] was 2 s and the Anesthesia maintenance time [2, 9] was 690 s.
In the case of CC(c1cccc(C(C)S(C)(=O)=O)c1O)C1CC1 (stereo not shown) [Compound 4, 2-(1-cyclopropylethyl)-6-(1-(methylsulfonyl)ethyl)phenol], the LD50 [1] is reported as 10 mg/kg, the MTD [1] is reported as 4 mg/kg and the ED50 ([2]; iv) is reported as 2 mg/kg. For the same compound, the TI ([2]; mice, LD50/ED50) was 5.0, the Anesthesia induction time [2, 8] was 2 s and the Anesthesia maintenance time [2, 9] was 356 s.
In the case of CC(c1cccc(C(C)[S+](C)[O-])c1O)C1CC1 (stereo not shown) [Compound 5, 2-(1-cyclopropylethyl)-6-(1-(methylsulfinyl)ethyl)phenol], the LD50 [1] is reported as 10 mg/kg, the MTD [1] is reported as 8 mg/kg and the ED50 ([2]; iv) is reported as 6 mg/kg. The TI ([2]; mice, LD50/ED50) was 1.7, the Anesthesia induction time [2, 8] was 2 s and the Anesthesia maintenance time [2, 9] was 1638 s.
Work on CC(C)c1cccc(C(C)C)c1O [Control group 1, propofol, reference compound] yielded an LD50 [1] of 31 mg/kg, an ED50 ([2]; iv) of 12 mg/kg and an Anesthesia induction time ([2]; mouse, in vivo) of 19 s. The Anesthesia maintenance time ([2]; mouse, in vivo) was 586 s and the MTD ([2]; mouse, in vivo, iv) was 20 mg/kg.
